Reference: patent publication US20230091225A1, “Bifunctional chimeric heterocyclic compounds for targeted degradation of androgen receptors and use thereof” (HINOVA PHARMACEUTICALS INC., priority 2019, published 2023)
Like-named read-outs stand apart in the source and are kept apart here.

What was measured:
androgen receptor (AR) = target: T1, androgen receptor (AR) (Homo sapiens, UniProt P10275); assay: Degradation of androgen receptor (AR) protein in VCaP cells by ELISA; type: cell-based; settings: for inhibition at 0.1 µM: read-out: % degradation
T1 sequence (P10275 1-920): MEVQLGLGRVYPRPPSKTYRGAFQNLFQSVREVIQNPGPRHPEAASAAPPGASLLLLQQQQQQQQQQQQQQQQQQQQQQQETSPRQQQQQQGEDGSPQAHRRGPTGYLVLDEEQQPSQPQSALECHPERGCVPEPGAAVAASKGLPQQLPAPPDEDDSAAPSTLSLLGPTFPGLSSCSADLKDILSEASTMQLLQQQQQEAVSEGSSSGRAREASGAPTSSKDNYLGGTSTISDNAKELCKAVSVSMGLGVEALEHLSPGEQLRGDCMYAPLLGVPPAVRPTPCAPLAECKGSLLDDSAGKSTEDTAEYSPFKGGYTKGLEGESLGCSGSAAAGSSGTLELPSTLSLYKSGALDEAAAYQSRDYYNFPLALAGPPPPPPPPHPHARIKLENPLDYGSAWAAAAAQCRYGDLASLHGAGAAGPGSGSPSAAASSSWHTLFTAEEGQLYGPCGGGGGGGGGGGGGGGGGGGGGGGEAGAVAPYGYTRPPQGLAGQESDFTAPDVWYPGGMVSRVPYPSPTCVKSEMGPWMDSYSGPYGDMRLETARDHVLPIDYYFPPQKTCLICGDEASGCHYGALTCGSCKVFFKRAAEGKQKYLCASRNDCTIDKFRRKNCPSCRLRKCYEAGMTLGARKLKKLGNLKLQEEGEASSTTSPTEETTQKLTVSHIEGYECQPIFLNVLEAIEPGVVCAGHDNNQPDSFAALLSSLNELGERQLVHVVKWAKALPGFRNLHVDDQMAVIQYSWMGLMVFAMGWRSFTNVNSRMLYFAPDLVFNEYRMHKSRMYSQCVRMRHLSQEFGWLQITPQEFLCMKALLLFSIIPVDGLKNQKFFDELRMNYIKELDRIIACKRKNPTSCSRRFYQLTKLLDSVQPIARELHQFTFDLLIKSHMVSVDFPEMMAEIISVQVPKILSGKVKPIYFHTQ

LNCaP/AR cells = assay: Inhibition of proliferation of LNCaP/AR prostate cancer cells (CCK-8); type: cell-based
[1] = percentage of degraded AR at 100 nM, VCaP cells, 16 h, ELISA
[2] = 144 h, proliferation of LNCap/AR cells, 6 days, CCK-8, read-out: IC50
[3] = proliferation of LNCap/AR cells, 6 days, CCK-8, read-out: IC50

inhibition at 0.1 µM (androgen receptor (AR); [1]) | IC50 (LNCaP/AR cells; [2]) | Molecule | also measured
50 to 79% | 100 to 500 nM | CC1(C)[C@H](Oc2ccc(C#N)c(Cl)c2)C(C)(C)[C@H]1N1Cc2cc(C#CC3CCN(C4CCN(c5cc6c(cc5F)C(=O)N(C5CCC(=O)NC5=O)C6=O)CC4)CC3)ccc2C1=O (stereo partly drawn) [Compound 51] | 
50 to 79% | < 100 nM | Cc1ncsc1-c1ccc([C@H](C)NC(=O)[C@@H]2C[C@@H](O)CN2C(=O)[C@@H](NC(=O)COC2CN(CCC#Cc3ccc4c(c3)CN([C@H]3C(C)(C)[C@H](Oc5ccc(C#N)c(Cl)c5)C3(C)C)C4=O)C2)C(C)(C)C)cc1 [Compound 32, (2s,4r)-1-((s)-2-(2-((1-(4-(2-((1r,3r)-3-(3-chloro-4-cyanophenoxy)-2,2,4,4-tetramethylcyclobutyl)-1-oxoheteroin-5-yl)-3-butyne-1-yl)azetidine-3-yl)oxy)acetamido)-3,3-dimethylbutyryl)-4-hydroxy-N-((S)-1-(4-(4-methylthiazol-5-yl)phenyl)ethyl)pyrrolidine-2-carboxamide] | 
25 to 49% | < 100 nM | Cc1ncsc1-c1ccc([C@H](C)NC(=O)[C@@H]2C[C@@H](O)CN2C(=O)[C@@H](NC(=O)COCC(C)OCC#Cc2ccc3c(c2)CN([C@H]2C(C)(C)[C@H](Oc4ccc(C#N)c(Cl)c4)C2(C)C)C3=O)C(C)(C)C)cc1 (stereo partly drawn) [Compound 15] | 
25 to 49% | > 1000 nM | N#Cc1ccc(O[C@H]2CC[C@H](N3Cc4nc(N5CC[C@@H](CN6CCN(c7cc8c(cc7F)CN(C7CCC(=O)NC7=O)C8=O)CC6)C5)ccc4C3=O)CC2)cc1Cl (stereo partly drawn) [Compound 54] | 
50 to 79% | < 100 nM | N#Cc1ccc(O[C@H]2CC[C@H](N3Cc4nc(N5CCC(CN6CCN(c7cc8c(cc7F)C(=O)N(C7CCC(=O)NC7=O)C8)CC6)CC5)ccc4C3=O)CC2)cc1Cl (stereo partly drawn) [Compound 204] | 
25 to 49% | < 100 nM | [2H]C([2H])([2H])N(C(=O)c1ccc(C#CCCCCOCC(=O)N[C@H](C(=O)N2C[C@H](O)C[C@H]2C(=O)N[C@@H](C)c2ccc(-c3scnc3C)cc2)C(C)(C)C)cc1)[C@H]1C(C)(C)[C@H](Oc2ccc(C#N)c(Cl)c2)C1(C)C [Compound 23] | 
50 to 79% | < 100 nM | Cc1ncsc1-c1ccc([C@H](C)NC(=O)[C@@H]2C[C@@H](O)CN2C(=O)[C@@H](NC(=O)CCn2cc(C#Cc3ccc4c(c3)CN([C@H]3C(C)(C)[C@H](Oc5ccc(C#N)c(Cl)c5)C3(C)C)C4=O)cn2)C(C)(C)C)cc1 [Compound 42] | 
50 to 79% | < 100 nM | Cc1ncsc1-c1ccc([C@H](C)NC(=O)[C@@H]2C[C@@H](O)CN2C(=O)[C@@H](NC(=O)COCCC#Cc2ccc3c(c2)CN([C@H]2C(C)(C)[C@H](Oc4ccc(C#N)c(Cl)c4)C2(C)C)C3=O)C(C)(C)C)cc1 [Compound 27] | 
< 25% | > 1000 nM | N#Cc1ccc(O[C@H]2CC[C@H](N3Cc4nc(N5CCN(CC6CCN(c7cc8c(cc7F)C(=O)N(C7CCC(=O)NC7=O)C8=O)CC6)CC5)ccc4C3=O)CC2)cc1Cl (stereo partly drawn) [Compound 210] | 
< 25% | > 1000 nM | N#Cc1ccc(O[C@H]2CC[C@H](N3Cc4nc(N5CCC(OC6CCN(c7ccc8c(c7)C(=O)N(C7CCC(=O)NC7=O)C8=O)CC6)CC5)ccc4C3=O)CC2)cc1Cl (stereo partly drawn) [Compound 60, 2-chloro-4-(((1r,4r)-4-(2-(4-((1-(2-(2,6-dioxopiperidin-3-yl)-1,3-dioxoisoindolin-5-yl)piperidine-4-yl)oxy)piperidin-1-yl)-5-oxo-5H-pyrrolo[3,4-b]pyridin-6(7H)-yl)cyclohexyl)oxy)benzonitrile] | 

The remaining lines, values behind:

Molecule | inhibition at 0.1 µM (androgen receptor (AR); [1]) | IC50 (LNCaP/AR cells; [2]) | also measured
Cc1ncsc1-c1ccc([C@H](C)NC(=O)[C@@H]2C[C@@H](O)CN2C(=O)[C@@H](NC(=O)CN2CCC(CN3CCN(c4ccc(C(=O)NC5CC6(C)OC5(C)[C@@H]5C(=O)N(c7ccc(C#N)c(Cl)c7)C(=O)[C@@H]56)cn4)CC3)CC2)C(C)(C)C)cc1 (stereo partly drawn) [Compound 18, N-((3aR,4R,7R,7aS)-2-(3-chloro-4-benzonitrile)-4,7-dimethyl-1,3dioxooctahydro-1H-4,7-epoxyisoindolin-5-yl)-6-(4-((1-(2-(((S)-1-((2S,4R)-4-hydroxy-2-(((S)-1-(4-(4-methylthiazol-5-yl)phenyl)ethyl)carbamoyl)pyrrolidin-1-yl)-3,3-dimethyl-1-oxobutan-2-yl)amino)-2-oxoethyl)piperidine-4-yl)methyl)piperazin-1-yl)nicotinamide] |  |  | inhibition at 0.1 µM (androgen receptor (AR); VCaP, 16 h): > 80%; IC50 (LNCaP/AR cells; LNCaP/AR, 144 h): < 100 nM
CC(=O)O[C@@H]1C[C@@H](C(=O)N[C@@H](CO)c2ccc(-c3scnc3C)cc2)N(C(=O)[C@@H](NC(=O)COCCCCC#Cc2ccc3c(c2)CN([C@H]2C(C)(C)[C@H](Oc4ccc(C#N)c(Cl)c4)C2(C)C)C3=O)C(C)(C)C)C1 [Compound 49, (3R,5S)-1-((S)-2-(2-((6-(2-(((1r,3r)-3-(3-chloro-4-cyanophenoxy))-2,2,4,4-tetramethylcyclobutyl)-1-oxoisoindolin-5-yl)hex-5-yn-1-yl)oxy)acetamido)-3,3-dimethylbutyryl)-5-(((R)-2-hydroxy-1-(4-(4-methylthiazol-5-yl)phenyl)ethyl)carbamoyl)pyrrolidin-3-yl acetate] | 25 to 49% |  | IC50 (LNCaP/AR cells; LNCaP/AR, 144 h): < 100 nM
CC(=O)O[C@@H]1C[C@@H](C(=O)N[C@@H](C)c2ccc(-c3scnc3C)cc2)N(C(=O)[C@@H](NC(=O)COCCOCC#Cc2ccc3c(c2)CN([C@H]2C(C)(C)[C@H](Oc4ccc(C#N)c(Cl)c4)C2(C)C)C3=O)C(C)(C)C)C1 [Compound 12, (3R,5S)-1-((S)-2-(2-(2-((3-(2-((1r,3r)-3-(3-chloro-4-cyanophenoxy)-2,2,4,4-tetramethylcyclobutyl)-1-oxoisoindolin-5-yl)prop-2-yn-1-yl)oxy)propoxy)acetylamino)-3,3-dimethylbutyryl)-5-((((S)-1-acetic acid (4-(4-methylthiazol-5-yl)phenyl)ethyl)carbamoyl)pyrrolidin-3-yl acetate] | 50 to 79% |  | IC50 (LNCaP/AR cells; LNCaP/AR, 144 h): < 100 nM
Cc1ncsc1-c1ccc([C@H](C)NC(=O)[C@H]2C[C@@H](O)CN2C(=O)[C@@H](NC(=O)COCCCCC#Cc2cc3c(cn2)C(=O)N(C2C(C)(C)C(Oc4ccc(C#N)c(Cl)c4)C2(C)C)C3)C(C)(C)C)cc1 (stereo partly drawn) [Compound 38] |  |  | % degradation (androgen receptor (AR)): B (key: A: >80%; B: 79%-50%; C: 49%-25%; D: <25%); IC50 (LNCaP/AR cells; [3]): < 100 nM
CC(=O)O[C@@H]1C[C@@H](C(=O)N[C@@H](C)c2ccc(-c3scnc3C)cc2)N(C(=O)[C@@H](NC(=O)CN2CCC(CN3CCN(c4ccc(C(=O)NC5C[C@@]6(C)O[C@]5(C)[C@@H]5C(=O)N(c7ccc(C#N)c(Cl)c7)C(=O)[C@@H]56)cn4)CC3)CC2)C(C)(C)C)C1 (stereo partly drawn) [Compound 17, (3R,5S)-1-((2S)-2-(2-(4-((4-(5-(((3aR,4R,7R,7aS)-2-(3-chloro-4-benzonitrile)-4,7-dimethyl-1,3-dioxooctahydro-1H-4,7-epoxyisoindolin-5-yl)carbamoyl) (pyridin-2-yl)piperazin-1-yl)methyl)piperidin-1-yl)acetylamino)-3,3-dimethylbutyryl)-5-(((S)-1-(4-(4-methylthiazol-5-yl)phenyl)ethyl)carbamoyl)pyrrolidin-3-yl acetate] |  |  | inhibition at 0.1 µM (androgen receptor (AR); VCaP, 16 h): 50 to 79%; IC50 (LNCaP/AR cells; LNCaP/AR, 144 h): < 100 nM
N#Cc1ccc(O[C@H]2CC[C@H](N3Cc4nc(N5CCC(CN6CCN(c7cc8c(cc7F)C(=O)N(C7CCC(=O)NC7=O)C8=O)CC6)CC5)ccc4C3=O)CC2)cc1Cl (stereo partly drawn) [Compound 200] |  | > 1000 nM | inhibition at 0.1 µM (androgen receptor (AR); VCaP, 16 h): 50 to 79%
(2R,4R)-1-((S)-2-(2-((6-(2-((1R,3R)-3-(3-chloro-4-cyanophenoxy)-2,2,4,4-tetramethylcyclobutyl)-3-oxoisoindolin-5-yl)hex-5-yn-1-yl)oxy)acetylamino)-3,3-dimethylbutyryl)-4-hydroxy-N-((S)-1-(4-(4-methylthiazol-5-yl)phenyl)ethyl) pyrrolidine-2-carboxamide [Compound 5] |  |  | % degradation (androgen receptor (AR); [1]): C (49%-25%); IC50 (LNCaP/AR cells; [3]): < 100 nM
CC(=O)O[C@@H]1C[C@@H](C(=O)N[C@@H](C)c2ccc(-c3scnc3C)cc2)N(C(=O)[C@@H](NC(=O)COCCCCCNc2ccc(NC(=O)N[C@H]3C(C)(C)[C@H](Oc4ccc(C#N)c(Cl)c4)C3(C)C)cc2)C(C)(C)C)C1 [Compound 1, (3R,5S)-1-((S)-2-(2-((5-((4-(3-((1R,3R)-3-(3-chloro-4-cyanophenoxy)-2,2,4,4-tetramethylcyclobutyl)ureido)phenyl)amino)pentyl)oxy)acetylamino)-3,3-dimethylbutyryl)-5-(((S)-1-(4-(4-methylthiazol-5-yl))phenyl)ethyl)carbamoyl) pyrrolidin-3-yl acetate] | < 25% | > 1000 nM | 
